Assay results published in US20250255848A1, “SUBSTITUTED 6,7-DIHYDRO-5H-BENZO[7]ANNULENE DERIVATIVES, PROCESSES FOR THEIR PREPARATION AND THERAPEUTIC USES THEREOF” (SANOFI, priority 2022, published 2025).

Molecular target: ERα (Homo sapiens (Human), UniProt P03372)
Assay: Estrogen receptor degradation activity: breast cancer cell ERα in cell western assay
Type: cell-based
Conditions: MCF7 cells; for % Degradation At 0.3 μM: 4 hours, normalised to fulvestrant 0.1 μM and DMSO; for IC50 / DC50: 4 hours post compound addition, concentration which degrades 50% of the estrogen receptor; for DC50: read-out: Degradation IC50
Method: Said test involves measuring the in vitro degradation activity of the compounds of the Table 1a.
The measurements of the degradation activities were made using a breast cancer cell ERα in cell western assay as described hereunder.
MCF7 cells (ATCC) were seeded in 384 wells microplate (collagen coated) at a concentration of 10000 cells/30 μL per well in red phenol free MEM alpha medium (invitrogen) containing 5% charcoal dextran striped FBS. The following day, 9 points serial 1:5 dilution of each compound was added to the cells in 2.5 μL at final concentrations ranging from 0.3-0.0000018 μM (in table 2), or 0.1 μM for fulvestrant (using as positive control). At 4 hours post compound addition the cells were fixed by adding 25 μL of formalin (final concentration 5% formalin containing 0.1% triton) for 10 minutes at room temperature and then washed twice with PBS. Then, 50 μL of LI-COR blocking buffer containing 0.1% Triton was added to plate for 30 minutes at room temperature. LI-COR blocking buffer was removed and cells were incubated overnight at cold room with 50 μL anti-ER rabbit monoclonal antibody (Thermo scientific MA1-39540) diluted at 1:1000 in LI-COR blocking buffer containing 0.1% tween-20. Wells which were treated with blocking buffer but no antibody were used as background control. Wells were washed twice with PBS (0.1% tween-20) and incubated at 37° C. for 60 minutes in LI-COR (0.1% tween-20) containing goat anti-rabbit antibody Alexa 488 (1:1000) and Syto-64 a DNA dye (2 μM final concentration). Cells were then washed 3 times in PBS and scanned in ACUMEN explorer (TTP-Labtech). Integrated intensities in the green fluorescence and red fluorescence were measured to determine the levels of ERα and DNA respectively.
The degradation activity with respect to estrogen receptors in this test is given by the concentration which degrades 50% of the estrogen receptor (or IC50) in nM.
The % of ERα levels decrease were determined as follows: % inhibition=100*(1−(sample−fulvestrant:DMSO−fulvestrant)).

Chain of ERα (P03372 whole entry): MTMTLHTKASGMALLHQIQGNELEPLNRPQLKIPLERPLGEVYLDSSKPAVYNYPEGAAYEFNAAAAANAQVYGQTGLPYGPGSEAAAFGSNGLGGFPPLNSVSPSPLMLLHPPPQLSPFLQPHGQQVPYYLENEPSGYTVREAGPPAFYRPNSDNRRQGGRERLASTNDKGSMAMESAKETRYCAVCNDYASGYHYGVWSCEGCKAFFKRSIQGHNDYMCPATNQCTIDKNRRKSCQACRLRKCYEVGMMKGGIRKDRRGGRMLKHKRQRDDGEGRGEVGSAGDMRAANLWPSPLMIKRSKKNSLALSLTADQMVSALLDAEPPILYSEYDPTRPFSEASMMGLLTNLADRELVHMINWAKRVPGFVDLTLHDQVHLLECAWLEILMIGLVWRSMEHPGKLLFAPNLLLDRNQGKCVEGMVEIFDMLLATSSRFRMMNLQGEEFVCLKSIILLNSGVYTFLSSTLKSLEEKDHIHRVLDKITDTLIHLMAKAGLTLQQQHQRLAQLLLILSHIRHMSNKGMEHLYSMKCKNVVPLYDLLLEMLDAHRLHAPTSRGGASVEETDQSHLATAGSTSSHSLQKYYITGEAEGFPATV

% Degradation At 0.3 μM	IC50	DC50	Compound
95%	0.2 nM	–	Cc1cc(C)c(C2=C(c3ccc(C=C4CN(CCCF)C4)cc3)c3ccc(C(=O)O)cc3CCC2)c(F)c1 [Compound 76, 8-(2-fluoro-4,6-dimethylphenyl)-9-(4-((1-(3-fluoropropyl)azetidin-3-ylidene)methyl)phenyl)-6,7-dihydro-5H-benzo[7]annulene-3-carboxylic acid]
94%	0.4 nM	–	COc1cccc(C2=C(c3ccc(C=C4CN(CCCF)C4)cc3)c3ccc(C(=O)O)cc3CCC2)c1C(F)(F)F [Compound 52, 9-(4-((1-(3-fluoropropyl)azetidin-3-ylidene)methyl)phenyl)-8-(3-methoxy-2-(trifluoromethyl)phenyl)-6,7-dihydro-5H-benzo[7]annulene-3-carboxylic acid]
95%	1.4 nM	–	COc1ccc(C2=C(c3ccc(C=C4CN(CCCF)C4)cc3)c3ccc(C(=O)O)cc3CCC2)cc1OC [Compound 82, 8-(3,4-dimethoxyphenyl)-9-(4-((1-(3-fluoropropyl)azetidin-3-ylidene)methyl)phenyl)-6,7-dihydro-5H-benzo[7]annulene-3-carboxylic acid]
91%	0.4 nM	–	CC(F)(F)c1cc(F)ccc1C1=C(c2ccc(C=C3CN(CCCF)C3)cc2)c2ccc(C(=O)O)cc2CCC1 [Compound 15, 8-(2-(1,1-difluoroethyl)-4-fluorophenyl)-9-(4-((1-(3-fluoropropyl)azetidin-3-ylidene)methyl)phenyl)-6,7-dihydro-5H-benzo[7]annulene-3-carboxylic acid]
100%	0.4 nM	–	O=C(O)c1ccc2c(c1)CCCC(c1cccc(C(F)(F)F)c1C(F)(F)F)=C2c1ccc(C=C2CN(CCCF)C2)cc1 [Compound 79, 8-(2,3-bis(trifluoromethyl)phenyl)-9-(4-((1-(3-fluoropropyl)azetidin-3-ylidene)methyl)phenyl)-6,7-dihydro-5H-benzo[7]annulene-3-carboxylic acid]
96%	3.1 nM	–	O=C(O)c1ccc2c(c1)CCCC(c1cccc3c1CCCO3)=C2c1ccc(C=C2CN(CCCF)C2)cc1 [Compound 64, 8-(chroman-5-yl)-9-(4-((1-(3-fluoropropyl)azetidin-3-ylidene)methyl)phenyl)-6,7-dihydro-5H-benzo[7]annulene-3-carboxylic acid]
91%	0.6 nM	–	Cc1ccc(C(F)(F)F)c(C)c1C1=C(c2ccc(C=C3CN(CCCF)C3)cc2)c2ccc(C(=O)O)cc2CCC1 [Compound 84, 8-(2,6-dimethyl-3-(trifluoromethyl)phenyl)-9-(4-((1-(3-fluoropropyl)azetidin-3-ylidene)methyl)phenyl)-6,7-dihydro-5H-benzo[7]annulene-3-carboxylic acid]
91%	0.7 nM	–	COc1cccc(C2=C(c3ccc(C=C4CN(CCCF)C4)cc3)c3ccc(C(=O)O)cc3CCC2)c1C [Compound 41, 9-(4-((1-(3-fluoropropyl)azetidin-3-ylidene)methyl)phenyl)-8-(3-methoxy-2-methylphenyl)-6,7-dihydro-5H-benzo[7]annulene-3-carboxylic acid]
86%	1.7 nM	–	CC1(C)CCC(C2=C(c3ncc(C=C4CN(CCC(F)F)C4)cc3F)c3ccc(C(=O)O)cc3CCC2)CC1 [Compound 66, 9-(5-((1-(3,3-difluoropropyl)azetidin-3-ylidene)methyl)-3-fluoropyridin-2-yl)-8-(4,4-dimethylcyclohexyl)-6,7-dihydro-5H-benzo[7]annulene-3-carboxylic acid]
90%	1 nM	–	O=C(O)c1ccc2c(c1)CCCC(c1cccc3c1OCCC3)=C2c1ccc(C=C2CN(CCCF)C2)cc1 [Compound 67, 8-(chroman-8-yl)-9-(4-((1-(3-fluoropropyl)azetidin-3-ylidene)methyl)phenyl)-6,7-dihydro-5H-benzo[7]annulene-3-carboxylic acid]
93%	0.3 nM	–	CCc1c(C2=C(c3ccc(C=C4CN(CCCF)C4)cc3)c3ccc(C(=O)O)cc3CCC2)cccc1C(F)(F)F [Compound 5, 8-(2-ethyl-3-(trifluoromethyl)phenyl)-9-(4-((1-(3-fluoropropyl)azetidin-3-ylidene)methyl)phenyl)-6,7-dihydro-5H-benzo[7]annulene-3-carboxylic acid]
94%	0.5 nM	–	Cc1cc(C2=C(c3ccc(C=C4CN(CCCF)C4)cc3)c3ccc(C(=O)O)cc3CCC2)ccc1C(F)F [Compound 28, 8-(4-(difluoromethyl)-3-methylphenyl)-9-(4-((1-(3-fluoropropyl)azetidin-3-ylidene)methyl)phenyl)-6,7-dihydro-5H-benzo[7]annulene-3-carboxylic acid]
91%	0.9 nM	–	C[C@H]1CC[C@@H](C2=C(c3ccc(C=C4CN(CCCF)C4)cc3)c3ccc(C(=O)O)cc3CCC2)CC1 [Compound 61, 9-(4-((1-(3-fluoropropyl)azetidin-3-ylidene)methyl)phenyl)-8-(cis-4-methylcyclohexyl)-6,7-dihydro-5H-benzo[7]annulene-3-carboxylic acid]
93%	0.5 nM	–	Cc1cc(C(F)F)ccc1C1=C(c2ccc(C=C3CN(CCCF)C3)cc2)c2ccc(C(=O)O)cc2CCC1 [Compound 44, 8-(4-(difluoromethyl)-2-methylphenyl)-9-(4-((1-(3-fluoropropyl)azetidin-3-ylidene)methyl)phenyl)-6,7-dihydro-5H-benzo[7]annulene-3-carboxylic acid]
91%	0.5 nM	–	CCc1c(Cl)cccc1C1=C(c2ccc(C=C3CN(CCCF)C3)cc2)c2ccc(C(=O)O)cc2CCC1 [Compound 46, 8-(3-chloro-2-ethylphenyl)-9-(4-((1-(3-fluoropropyl)azetidin-3-ylidene)methyl)phenyl)-6,7-dihydro-5H-benzo[7]annulene-3-carboxylic acid]
81%	–	1.8 nM	O=C(O)c1ccc2c(c1)CCCC(c1ccc(Cl)cc1Cl)=C2c1ccc(C=C2CN(CC(F)CF)C2)cc1 (single isomer, unassigned) [Compound 70, 8-(2,4-dichlorophenyl)-9-(4-((1-(2,3-difluoropropyl)azetidin-3-ylidene)methyl)phenyl)-6,7-dihydro-5H-benzo[7]annulene-3-carboxylic acid]
91%	–	0.3 nM	O=C(O)c1ccc2c(c1)CCCC(C1CC13CCC3)=C2c1ccc(C=C2CN(CCCF)C2)cc1 (single isomer, unassigned) [Compound 35, 9-(4-((1-(3-fluoropropyl)azetidin-3-ylidene)methyl)phenyl)-8-(spiro[2.3]hexan-1-yl)-6,7-dihydro-5H-benzo[7]annulene-3-carboxylic acid]
92%	0.2 nM	–	CCc1ccc(C2=C(c3ccc(C=C4CN(CCCF)C4)cc3)c3ccc(C(=O)O)cc3CCC2)c(C(F)(F)F)c1 [Compound 19, 8-(4-ethyl-2-(trifluoromethyl)phenyl)-9-(4-((1-(3-fluoropropyl)azetidin-3-ylidene)methyl)phenyl)-6,7-dihydro-5H-benzo[7]annulene-3-carboxylic acid]
91%	0.3 nM	–	O=C(O)c1ccc2c(c1)CCCC(c1cccc(F)c1OC(F)F)=C2c1ccc(C=C2CN(CCCF)C2)cc1 [Compound 33, 8-(2-(difluoromethoxy)-3-fluorophenyl)-9-(4-((1-(3-fluoropropyl)azetidin-3-ylidene)methyl)phenyl)-6,7-dihydro-5H-benzo[7]annulene-3-carboxylic acid]
85%	–	0.3 nM	Cc1c(C2=C(c3ccc(C=C4CN(CCCF)C4)cc3)c3ccc(C(=O)O)cc3CCC2)ccc(C(F)(F)F)c1F [Compound 73, 8-(3-fluoro-2-methyl-4-(trifluoromethyl)phenyl)-9-(4-((1-(3-fluoropropyl)azetidin-3-ylidene)methyl)phenyl)-6,7-dihydro-5H-benzo[7]annulene-3-carboxylic acid]
94%	0.4 nM	–	COc1cc(Cl)cc(C)c1C1=C(c2ccc(C=C3CN(CCCF)C3)cc2)c2ccc(C(=O)O)cc2CCC1 [Compound 83, 8-(4-chloro-2-methoxy-6-methylphenyl)-9-(4-((1-(3-fluoropropyl)azetidin-3-ylidene)methyl)phenyl)-6,7-dihydro-5H-benzo[7]annulene-3-carboxylic acid]
